Experiments:
[1] = tested on: skin; details: similar to the effect seen with dihydroxyacetone; cited from earlier work
[2] = tested on: UVA-induced ROS; experiment: Reduction of UVA-induced ROS in organ culture of human skin (DCFH-DA); type: cell-based
Experimental: Organ culture of human skin was performed starting from a skin sample, exciding pieces of approximately 8×3 mm (ø×thickness). Skin samples (6 per treatment) were cultured in an air-liquid interface in a perforated ring of stainless steel in contact with culture medium (modified Williams' E medium).
At start of the skin culture, in parallel to untreated, the formulations 14.1 to 14.3 and 100% tocopherol acetate were applied topically on the skin samples and afterwards they were cultivated overnight. On the next day, the topical treatments were renewed for 1 hour. In parallel, culture medium with 100 μM of 2′,7′-dichlorofluorescin diacetate (DCFH-DA, Sigma #D6883) was prepared. After 1 hour of incubation of the skin samples, the culture medium was replaced by the medium containing DCFH-DA and the skin samples were incubated for 30 minutes. Then, the skin samples were washed in PBS buffer and UVA irradiation (lamp: Bio Sun by Vilber Lourmat, 60 J/cm2) was performed. Afterwards, the skin samples were harvested, cryo-fixed and cut at the cryostat for image acquisition and analysis. The image acquisition was performed using Olympus BX51 microscope and Olympus DP70 camera. Two skin sections for each skin sample were cut and the related images were acquired and analysed. Doing so, 12 images were obtained for each formulation for analysis. Image analysis was performed within the dermis area selected from the upper part by following the perimeter of the basal lamina to the deep dermis. The obtained values from were normalized upon the dimension of the selected area.

SMILES | production of free radicals [1] | reduction of UVA-induced ROS vs untreated UVA-irradiated ([2]; 100% tocopherol acetate, topical) [%] | Modulation vs untreated + UVA ([2]; UVA 60 J/cm2) [%] | Mean ROS score ([2]; UVA 60 J/cm2, topical overnight and renewed 1 hour, untreated no UVA 0.015, untreated + UVA 0.573)
O=C(CO)[C@H](O)CO [Erythrulose, D-Erythrulose] | increase production of free radicals |  |  | 
CC(=O)Oc1c(C)c(C)c2c(c1C)CCC(C)(CCC[C@H](C)CCC[C@H](C)CCCC(C)C)O2 (stereo partly shown) [Tocopherol acetate] |  | 73 | −73 | 0.157
